Results on 6 compounds are retold here after patent publication US8080644B2, “Oligonucleotide analogues” (Exiqon A/S, priority 1997, dated 2011).

V = bicyclic LNA-type nucleotide of structure V in the publication's (LNA marked in bold); l = locked nucleic acid (LNA); d = 2'-deoxy (DNA)

The test system of data set [1] is 5′-d(AAAACAAAA)-3′. The data set can be described thus: Tm of duplex (spectrophotometric melting curves). Type of data set: binding. As to conditions: vs 5′-d(AAAACAAAA)-3′ (mismatch); 10 mM Na2HPO4 pH 7.0, 100 mM NaCl, 0.1 mM EDTA. The method, then:
(§1) Thermostability of oligonucleotides containing monomers of formula V, X, Y and Z^T, Z^U, Z^G, Z^C, Z^A, Z^MeC. The thermostability of the LNA modified oligonucleotides were determined spectrophotometrically using a spectrophotometer equipped with a thermoregulated Peltier element. Hybridisation mixtures of 1 ml were prepared containing either of 3 different buffers (10 mM Na2HPO4, pH 7.0, 100 mM NaCl, 0.1 mM EDTA; 10 mM Na2HPO4 pH 7.0, 0.1 mM EDTA; 3M tetramethylammoniumchlorid (TMAC), 10 mM Na2HPO4, pH 7.0, 0.1 mM EDTA) and equimolar (1 μM or 1.5 μM) amounts of the different LNA modified oligonucleotides and their complementary or mismatched DNA or RNA oligonucleotides. Identical hybridisation mixtures using the unmodified oligonucleotides were prepared as references. The Tm's were obtained as the first derivative of the melting curves. FIG. 2 illustrates the monomeric LNAs used. The nomenclature V, X, Y and Z^T, Z^U, Z^G, Z^C, Z^A, Z^MeC refer to structures V, X, Y and Z of FIG. 2. In the tables, the nucleobases of the LNA monomers are indicated. Furthermore, for the thio and amino variants of the LNA structure Z of the last two tables, the nomenclature used is, e.g., Z^TS and Z^TNH, respectively.

Data set [2] has as its system 5′-(AAAAAAAAAAAAAA)-3′. The data set can be described thus: Tm of duplex (spectrophotometric melting curves). Type of data set: binding. As to conditions: vs RNA 5′-(AAAAAAAAAAAAAA)-3′; 10 mM Na2HPO4 pH 7.0, 100 mM NaCl, 0.1 mM EDTA. As to the method:
as §1

Data set [3] relates to 5′-d(AAAATAAAA)-3′. The data set can be described thus: Tm of duplex (spectrophotometric melting curves). The class given is binding. The following applies: vs 5′-d(AAAATAAAA)-3′ (mismatch); 10 mM Na2HPO4 pH 7.0, 100 mM NaCl, 0.1 mM EDTA. As to the method:
as §1

Data set [4] has as its system 5′-d(AAAAAAAAAAAAAA)-3′. The data set is described as follows: Tm of duplex (spectrophotometric melting curves). The class given is binding. The following applies: vs 5′-d(AAAAAAAAAAAAAA)-3′; 10 mM Na2HPO4 pH 7.0, 100 mM NaCl, 0.1 mM EDTA. As to the method:
as §1

Data set [5] has as its system 5′-d(AAAAGAAAA)-3′. The data set can be described thus: Tm of duplex (spectrophotometric melting curves). Type of data set: binding. As to conditions: vs 5′-d(AAAAGAAAA)-3′ (mismatch); 10 mM Na2HPO4 pH 7.0, 100 mM NaCl, 0.1 mM EDTA. As to the method: as §1
In data set [6] the test system is 5′-(AAAAAAGAAAAAAA)-3′. The data set is described as follows: Tm of duplex (spectrophotometric melting curves). Type of data set: binding. As to conditions: vs RNA 5′-(AAAAAAGAAAAAAA)-3′ (mismatch); 10 mM Na2HPO4 pH 7.0, 100 mM NaCl, 0.1 mM EDTA. The method, then:
as §1

Data set [7] deals with δ opioid receptor. The data set can be described thus: Warm water tail flick test, [D-Ala2]deltorphin-induced antinociception. The class given is in vivo, rats. The following applies: 60 μg, i.th, saline-treated controls, 52° C. water. As to the method:
Blockade by Antisense Locked Nucleic Acids (LNA) of [D-Ala2]Deltorphin-Induced Antinociception in the Warm Water Tail Flick Test in Conscious Rats. Male Sprague-Dawley rats (300 g) were implanted with an intrathecal (i.th). polyethylene catheter and allowed to recover for at least 5 days before start of injections (including controls). The antisense LNA compounds (12.5 and 2.5 μg per injection) were administered in a 5 μl volume twice-daily (08.00 and 17.00 h) for 3 days. No signs of non-specific effects or toxicity could be detected, as shown by observations of locomotor behavior and measurements of body weight. The day after the last injection the rats were injected with [D-Ala2]deltorphin (60 μg, i.th) and tested in the warm water (52° C.) tail flick test for δ opioid receptor-mediated antinociception. Data are presented in FIG. 14 as medians based on 6-8 animals per group (data converted to percent maximum possible response, % MPE). Statistical analyses were performed by means of Kruskal-Wallis 1-way ANOVA by ranks, followed by comparisons of treatments versus control.
A general note: In hot-plate and tail-flick tests a longer latency is read as antinociception.

Data set [8] deals with MCF-7 human breast cancer cells.
Data set [9] has the same test system. This is another data set of the same source.
The test system of data set [10] is human MCF-7 breast cancer cells.
In data set [11] the test system is terminal deoxynucleotidyl transferase (TdT). The data set is described as follows: Tailing of primers with dATP. The class given is biochemical. As to conditions: 4 pmol primer, 25 U TdT, 16 μM dATP, 90 min, 37° C. The method, then:
The ability of terminal deoxynucleotidyl transferase (TdT) to tail LNA modified oligonucleotides depends on the design of the oligomer. The following 15mer primers and a mixture of 8 to 32 base oligonucleotide markers were 5′ end labelled with [γ^33P] ATP and T4 polynucleotide kinase (where LNA monomers are in bold):
Reactions were boiled for 5 min after labelling to remove any PNK activity. Four picomoles of each labelled primer, 25 U terminal deoxynucleotidyl transferase and 16 μM dATP were incubated in 25 μl 100 mM cacodylate buffer pH 7.2, 2 mM CoCl2 and 0.2 mM 2-mercapto-ethanol for 90 min at 37° C. The reactions were stopped by the addition of formamide stop solution and the reaction products run on a 19% polyacrylamide 7 M urea gel with the labelled markers. Autoradiography using Biomax film was carried out on the dry gel. […] Primer PZ2 (lane 5) was not extended under these reaction conditions. We conclude that the TdT enzyme will tolerate LNA monomers within the oligonucleotide, but not at the extreme 3′ end.

Data set [12] concerns the target Exonuclease III (Escherichia coli, UniProt P09030).
Data set [13] has as its system Arabidopsis mRNA, AMV Reverse Transcriptase. The data set is described as follows: First strand cDNA synthesis priming. Type of data set: biochemical. The following applies: 42° C., 2 hours, vs anchored poly dT control. As to the method:
First Strand cDNA Synthesis Using Poly dT Primers Containing LNA T monomers. Reactions were set up in order to test the ability of poly dT primers containing LNA T residues to prime 1st strand cDNA synthesis. The following poly dT primers were tested (LNA monomers are in bold): […]
Reactions were set up as follows for each of the primers above: […]
This mix was then heated to 75° C. for 3 min and then allowed to cool at room temperature for at least 10 min.
The following was then added to each of the reactions:
The reactions were incubated at 42° C. for 2 hours. The reactions were then heated at 95° C. for 3 min before loading onto a 6% polyacrylamide 7M urea gel. The gel was fixed in 10% acetic acid/10% methanol before transferring to 3 MM paper and drying. The dried gel was exposed to Kodak Biomax autoradiography film overnight.

With “5′-d(TTTTTTTTTT)-3′ (SEQ ID NO: 95): almost fully modified LNA oligomer containing exclusively Z^T (52-56) (LNA Z^T monomers)”, the “Tm (° C.) Na2HPO4/NaCl/EDTA” value in [1] came out at 63 °C; in data set [2], 70 °C; in [3], 65 °C; in [4], 80 °C; in data set [5], 55 °C.
Take “5′-d(TTTTTTTTTTTTTT)-3′ (SEQ ID NO: 113): fully modified poly-T oligonucleotide of structure V (sugars from the 5' end V13 d1, backbone not given here)”: the “Tm (° C.) Na2HPO4/NaCl/EDTA” value in data set [6] is 37 °C; in [2] it was 42 °C; in data set [4], below 10 °C.
As for `CC(C)[C@H](NC(=O)[C@H](CCC(=O)O)NC(=O)[C@H](Cc1ccccc1)NC(=O)[C@@H](C)NC(=O)[C@@H](N)Cc1ccc(O)cc1)C(=O)N[C@H](C(=O)NCC(=O)O)C(C)C` [deltorphin, [D-Ala2]deltorphin], the antinociceptive effect entry in data set [7] is on record as “robust antinociceptive effect”.
With “AL16: LNA oligo 5′-d(TGT GTG AAA TTG TTA T)-3′ (SEQ ID NO:57); also fluorescein/FITC-labelled (DNA TGTGTGAAATTGTTAT; LNA-containing, positions not given here, fluorescein label)”, the “number of green fluorescent cells after additional 3 days” value in data set [8] is “appeared unaltered”. The “added radioactivity associated with cellular material” value in data set [9] is recorded as “approximately 0.8%”. Further, the intracellular localisation result in data set [10] is “predominantly was localised in the nuclei of the cells”.
“PZ2: 5′-GC ATG TGC TGG AGA T-3′ (SEQ ID NO: 13), single LNA monomer at the 3′ end (DNA GCATGTGCTGGAGAT; sugars from the 5' end d14 l1, backbone and methylation of C not given here)”: in data set [11], the tail length entry is on record as “not extended”. For the same compound, the “full length product left after the 5 minute incubation” value in data set [12] (10 Units Exonuclease III, 37° C., 5 min, primer hybridised to template) worked out at 62%. Also, in data set [12] (in the absence of the enzyme), the “full length band, % of the signal” value is given as 96%.
In the case of “RTZ 5: poly dT primer 5′-TTT TTT TTT T-3′ (SEQ ID NO: 69) containing LNA T monomers (TTTTTTTTTT; LNA T monomers)”, the “priming of 1st strand cDNA synthesis” value in data set [13] is on record as “yield was significantly lower than that produced with the control oligo primer”.
